Experimental data: publication PMC13210772, “Dual FLT3/MAPK14 Proteolysis-Targeting Chimera (PROTAC) Induces Potent Acute Myeloid Leukemia Cell Death” (Pharmaceuticals, 2026)

Experiments:
Assay in all cases: NanoBRET CELLinib128
Type in all cases: binding
BRSK1 = target: T1, BRSK1 (Homo sapiens, UniProt Q8TDC3); conditions: 100% no effect, 0% complete tracer displacement, read-out: Tracer bound
T1 construct: Full-length kinase ORF (Promega, Madison, WI, USA) cloned in frame with a NanoLuc-vector was transfected into HEK293T cells; host or cells: HEK293T
Protocol: (§1) To get an impression about the binding strength of the PROTAC MA191 and the reference inhibitor MA68 to other kinases besides FLT3-ITD the binding on a kinase panel of further 128 representative protein kinases at 1 μM concentration was tested using the NanoBRET^TM cellular target engagement assay (CELLinib128 assay, CELLinib GmbH, Frankfurt, Germany). […] In none of the 128 kinases MA191 was able to displace the tracer (inhibitor) used by more than 50%, Table S1, Supplementary Information).
(§2) The CELLinib128 assay was performed by CELLinib GmbH, Frankfurt (Germany) as described previously. In brief: Full-length kinase ORF (Promega, Madison, WI, USA) cloned in frame with a NanoLuc-vector was transfected into HEK293T cells in Opti-MEM without phenol red (Life Technologies, Carlsbad, CA, USA) at a density of 2 × 10^5 cells/mL using FuGENE HD (Promega, E2312) and proteins were allowed to express for 20 h. For CDKs, where indicated below, an excess of an activator without an NLuc-fusion was cotransfected. […] The system was allowed to equilibrate at 37 °C for 2 h and 5% CO2 prior to BRET measurements. For PKCs, a chemical activator PMA was added in a final concentration of 1 µM was added together with test compounds and tracers (Promega, V1171). To measure BRET, NanoBRET^TM NanoGlo substrate + extracellular NanoLuc inhibitor (Promega, N2160) were added as per the manufacturer’s protocol, and filtered luminescence was measured (450 nm BP filter (donor) and 610 nm LP filter (acceptor)). For the 1-shot test compounds, data were normalized to the tracer control and the background control or control compound plateau and an average and SD were calculated. […] For the control compounds competitive displacement data were normalized to the tracer Ctrl and the background Ctrl and then plotted and fitted using GraphPad Prism 10 software using a normalized 3-parameter curve fit with the following equation: Y = 100/(1 + 10^X−LogIC50).

PRKCD-PMA = target: T2, PRKCD-PMA (Homo sapiens, UniProt Q05655); conditions: 100% no effect, 0% complete tracer displacement, read-out: Tracer bound
T2 construct: Full-length kinase ORF (Promega, Madison, WI, USA) cloned in frame with a NanoLuc-vector was transfected into HEK293T cells; host or cells: HEK293T
Protocol: as §1, §2

SNRK = target: T3, SNRK (Homo sapiens, UniProt Q9NRH2); conditions: 100% no effect, 0% complete tracer displacement, read-out: Tracer bound
T3 construct: Full-length kinase ORF (Promega, Madison, WI, USA) cloned in frame with a NanoLuc-vector was transfected into HEK293T cells; host or cells: HEK293T
T3 sequence (Q9NRH2 whole entry): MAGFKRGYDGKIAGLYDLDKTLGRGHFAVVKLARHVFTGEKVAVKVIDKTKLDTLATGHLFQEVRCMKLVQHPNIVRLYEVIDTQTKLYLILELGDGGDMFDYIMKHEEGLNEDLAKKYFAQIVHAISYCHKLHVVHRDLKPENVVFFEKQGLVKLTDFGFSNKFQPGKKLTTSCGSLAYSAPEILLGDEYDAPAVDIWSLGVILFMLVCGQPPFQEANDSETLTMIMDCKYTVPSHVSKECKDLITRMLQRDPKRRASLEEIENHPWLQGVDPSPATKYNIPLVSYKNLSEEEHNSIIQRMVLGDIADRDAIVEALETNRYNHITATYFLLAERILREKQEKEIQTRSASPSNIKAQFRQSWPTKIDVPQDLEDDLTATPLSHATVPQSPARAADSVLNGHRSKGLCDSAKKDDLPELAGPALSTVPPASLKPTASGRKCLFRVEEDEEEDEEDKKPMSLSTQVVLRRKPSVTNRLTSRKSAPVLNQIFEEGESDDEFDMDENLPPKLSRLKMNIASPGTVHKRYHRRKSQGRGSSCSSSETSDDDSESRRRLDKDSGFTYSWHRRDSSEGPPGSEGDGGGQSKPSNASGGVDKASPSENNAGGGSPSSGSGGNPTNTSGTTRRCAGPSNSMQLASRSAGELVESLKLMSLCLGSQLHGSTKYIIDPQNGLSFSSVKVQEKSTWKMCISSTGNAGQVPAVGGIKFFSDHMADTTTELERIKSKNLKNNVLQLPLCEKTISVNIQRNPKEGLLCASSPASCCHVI
Protocol: as §1, §2

IRAK4 = target: T4, IRAK4 (Homo sapiens, UniProt Q9NWZ3); conditions: 1 µM; 100% no effect, 0% complete tracer displacement
T4 construct: Full-length kinase ORF (Promega, Madison, WI, USA) cloned in frame with a NanoLuc-vector was transfected into HEK293T cells; host or cells: HEK293T
T4 sequence (Q9NWZ3 whole entry): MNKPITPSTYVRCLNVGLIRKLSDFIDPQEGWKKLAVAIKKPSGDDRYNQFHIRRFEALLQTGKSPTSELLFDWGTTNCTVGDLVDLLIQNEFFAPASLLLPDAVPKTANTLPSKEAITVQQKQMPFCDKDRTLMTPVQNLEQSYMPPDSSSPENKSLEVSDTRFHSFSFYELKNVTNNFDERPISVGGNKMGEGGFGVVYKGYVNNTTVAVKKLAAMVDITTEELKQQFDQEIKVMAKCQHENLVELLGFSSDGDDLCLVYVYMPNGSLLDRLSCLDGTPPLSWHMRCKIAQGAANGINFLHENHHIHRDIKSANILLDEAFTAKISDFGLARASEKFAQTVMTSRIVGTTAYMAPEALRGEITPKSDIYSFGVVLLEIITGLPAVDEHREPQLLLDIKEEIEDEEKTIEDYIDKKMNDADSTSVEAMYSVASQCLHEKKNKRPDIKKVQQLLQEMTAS
Protocol: as §1, §2

TEK = target: T5, TEK (Homo sapiens, UniProt Q02763); conditions: 100% no effect, 0% complete tracer displacement, read-out: Tracer bound
T5 construct: Full-length kinase ORF (Promega, Madison, WI, USA) cloned in frame with a NanoLuc-vector was transfected into HEK293T cells; host or cells: HEK293T
Protocol: as §1, §2

MAP4K2 = target: T6, MAP4K2 (Homo sapiens, UniProt Q12851); conditions: 100% no effect, 0% complete tracer displacement, read-out: Tracer bound
T6 construct: Full-length kinase ORF (Promega, Madison, WI, USA) cloned in frame with a NanoLuc-vector was transfected into HEK293T cells; host or cells: HEK293T
Protocol: as §1, §2

CDK17-CCNY = target: T7, CDK17-CCNY (Homo sapiens, UniProt Q00537); conditions: 100% no effect, 0% complete tracer displacement, read-out: Tracer bound
T7 construct: Full-length kinase ORF (Promega, Madison, WI, USA) cloned in frame with a NanoLuc-vector was transfected into HEK293T cells; host or cells: HEK293T
Protocol: as §1, §2

ULK3v1 = target: T8, ULK3v1 (Homo sapiens, UniProt Q6PHR2); conditions: 1 µM; 100% no effect, 0% complete tracer displacement
T8 construct: Full-length kinase ORF (Promega, Madison, WI, USA) cloned in frame with a NanoLuc-vector; host or cells: HEK293T
Protocol: as §1, §2

STK4 = target: T9, STK4 (Homo sapiens, UniProt Q13043); conditions: 1 µM; 100% no effect, 0% complete tracer displacement
T9 construct: Full-length kinase ORF (Promega, Madison, WI, USA) cloned in frame with a NanoLuc-vector was transfected into HEK293T cells; host or cells: HEK293T
T9 sequence (Q13043 whole entry): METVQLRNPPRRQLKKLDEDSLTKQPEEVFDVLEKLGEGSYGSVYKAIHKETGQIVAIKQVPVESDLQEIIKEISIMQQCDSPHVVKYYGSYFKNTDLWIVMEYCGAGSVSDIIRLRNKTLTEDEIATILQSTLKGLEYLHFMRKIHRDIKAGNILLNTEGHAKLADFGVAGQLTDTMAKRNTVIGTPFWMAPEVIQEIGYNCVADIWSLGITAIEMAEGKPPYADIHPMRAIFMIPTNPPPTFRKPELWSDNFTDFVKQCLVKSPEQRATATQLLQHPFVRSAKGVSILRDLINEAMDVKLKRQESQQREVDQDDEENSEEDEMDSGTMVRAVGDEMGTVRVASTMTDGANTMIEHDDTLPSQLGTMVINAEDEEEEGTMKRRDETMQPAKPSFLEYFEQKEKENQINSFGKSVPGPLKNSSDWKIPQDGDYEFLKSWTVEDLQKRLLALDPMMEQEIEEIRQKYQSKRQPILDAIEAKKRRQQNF
Protocol: as §1, §2

IRAK3 = target: T10, IRAK3 (Homo sapiens, UniProt Q9Y616); conditions: 100% no effect, 0% complete tracer displacement, read-out: Tracer bound
T10 construct: Full-length kinase ORF (Promega, Madison, WI, USA) cloned in frame with a NanoLuc-vector was transfected into HEK293T cells; host or cells: HEK293T
Protocol: as §1, §2

CDK14-CCNY = target: T11, CDK14-CCNY (Homo sapiens, UniProt O94921); conditions: 1 µM; 100% no effect, 0% complete tracer displacement
T11 construct: Full-length kinase ORF (Promega, Madison, WI, USA) cloned in frame with a NanoLuc-vector was transfected into HEK293T cells; host or cells: HEK293T
Protocol: as §1, §2

CDK18-CCNY = target: T12, CDK18-CCNY (Homo sapiens, UniProt Q07002); conditions: 100% no effect, 0% complete tracer displacement, read-out: Tracer bound
T12 construct: Full-length kinase ORF (Promega, Madison, WI, USA) cloned in frame with a NanoLuc-vector was transfected into HEK293T cells; host or cells: HEK293T
Protocol: as §1, §2

MAP3K11 = target: T13, MAP3K11 (Homo sapiens, UniProt Q16584); conditions: 1 µM; 100% no effect, 0% complete tracer displacement
T13 construct: Full-length kinase ORF (Promega, Madison, WI, USA) cloned in frame with a NanoLuc-vector was transfected into HEK293T cells; host or cells: HEK293T
T13 sequence (Q16584 whole entry): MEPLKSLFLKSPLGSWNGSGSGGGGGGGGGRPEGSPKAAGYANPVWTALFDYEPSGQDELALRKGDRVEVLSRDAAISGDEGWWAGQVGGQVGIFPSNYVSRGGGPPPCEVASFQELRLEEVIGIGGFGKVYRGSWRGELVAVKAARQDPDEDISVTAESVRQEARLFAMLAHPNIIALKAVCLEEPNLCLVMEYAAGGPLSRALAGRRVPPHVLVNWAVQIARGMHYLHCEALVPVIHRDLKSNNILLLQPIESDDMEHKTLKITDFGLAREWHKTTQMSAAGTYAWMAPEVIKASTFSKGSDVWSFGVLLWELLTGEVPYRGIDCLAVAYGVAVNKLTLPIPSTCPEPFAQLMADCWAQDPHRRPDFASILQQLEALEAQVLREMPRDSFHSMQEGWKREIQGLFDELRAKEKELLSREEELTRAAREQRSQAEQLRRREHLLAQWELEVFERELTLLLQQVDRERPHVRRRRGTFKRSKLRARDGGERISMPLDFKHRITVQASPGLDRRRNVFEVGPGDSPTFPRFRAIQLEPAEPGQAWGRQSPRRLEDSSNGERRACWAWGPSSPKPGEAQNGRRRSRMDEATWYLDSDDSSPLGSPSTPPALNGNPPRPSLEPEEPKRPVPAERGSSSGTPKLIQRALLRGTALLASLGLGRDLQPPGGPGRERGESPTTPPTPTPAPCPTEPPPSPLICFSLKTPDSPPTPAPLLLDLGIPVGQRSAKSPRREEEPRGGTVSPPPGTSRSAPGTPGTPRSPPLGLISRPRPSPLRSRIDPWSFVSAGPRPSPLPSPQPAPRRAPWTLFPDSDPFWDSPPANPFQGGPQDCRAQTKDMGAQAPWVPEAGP
Protocol: as §1, §2

PRKCQ-PMA = target: T14, PRKCQ-PMA (Homo sapiens, UniProt Q04759); conditions: 100% no effect, 0% complete tracer displacement, read-out: Tracer bound
T14 construct: Full-length kinase ORF (Promega, Madison, WI, USA) cloned in frame with a NanoLuc-vector was transfected into HEK293T cells; host or cells: HEK293T
Protocol: as §1, §2

PRKCE-PMA = target: T15, PRKCE-PMA (Homo sapiens, UniProt Q02156); conditions: 100% no effect, 0% complete tracer displacement, read-out: Tracer bound
T15 construct: Full-length kinase ORF (Promega, Madison, WI, USA) cloned in frame with a NanoLuc-vector was transfected into HEK293T cells; host or cells: HEK293T
Protocol: as §1, §2

CDK5-CDK5R2 = target: T16, CDK5-CDK5R2 (Homo sapiens, UniProt Q00535); conditions: 100% no effect, 0% complete tracer displacement, read-out: Tracer bound
T16 construct: Full-length kinase ORF (Promega, Madison, WI, USA) cloned in frame with a NanoLuc-vector was transfected into HEK293T cells; host or cells: HEK293T
Protocol: as §1, §2

MAP3K9 = target: T17, MAP3K9 (Homo sapiens, UniProt P80192); conditions: 100% no effect, 0% complete tracer displacement, read-out: Tracer bound
T17 construct: Full-length kinase ORF (Promega, Madison, WI, USA) cloned in frame with a NanoLuc-vector was transfected into HEK293T cells; host or cells: HEK293T
T17 sequence (P80192 whole entry): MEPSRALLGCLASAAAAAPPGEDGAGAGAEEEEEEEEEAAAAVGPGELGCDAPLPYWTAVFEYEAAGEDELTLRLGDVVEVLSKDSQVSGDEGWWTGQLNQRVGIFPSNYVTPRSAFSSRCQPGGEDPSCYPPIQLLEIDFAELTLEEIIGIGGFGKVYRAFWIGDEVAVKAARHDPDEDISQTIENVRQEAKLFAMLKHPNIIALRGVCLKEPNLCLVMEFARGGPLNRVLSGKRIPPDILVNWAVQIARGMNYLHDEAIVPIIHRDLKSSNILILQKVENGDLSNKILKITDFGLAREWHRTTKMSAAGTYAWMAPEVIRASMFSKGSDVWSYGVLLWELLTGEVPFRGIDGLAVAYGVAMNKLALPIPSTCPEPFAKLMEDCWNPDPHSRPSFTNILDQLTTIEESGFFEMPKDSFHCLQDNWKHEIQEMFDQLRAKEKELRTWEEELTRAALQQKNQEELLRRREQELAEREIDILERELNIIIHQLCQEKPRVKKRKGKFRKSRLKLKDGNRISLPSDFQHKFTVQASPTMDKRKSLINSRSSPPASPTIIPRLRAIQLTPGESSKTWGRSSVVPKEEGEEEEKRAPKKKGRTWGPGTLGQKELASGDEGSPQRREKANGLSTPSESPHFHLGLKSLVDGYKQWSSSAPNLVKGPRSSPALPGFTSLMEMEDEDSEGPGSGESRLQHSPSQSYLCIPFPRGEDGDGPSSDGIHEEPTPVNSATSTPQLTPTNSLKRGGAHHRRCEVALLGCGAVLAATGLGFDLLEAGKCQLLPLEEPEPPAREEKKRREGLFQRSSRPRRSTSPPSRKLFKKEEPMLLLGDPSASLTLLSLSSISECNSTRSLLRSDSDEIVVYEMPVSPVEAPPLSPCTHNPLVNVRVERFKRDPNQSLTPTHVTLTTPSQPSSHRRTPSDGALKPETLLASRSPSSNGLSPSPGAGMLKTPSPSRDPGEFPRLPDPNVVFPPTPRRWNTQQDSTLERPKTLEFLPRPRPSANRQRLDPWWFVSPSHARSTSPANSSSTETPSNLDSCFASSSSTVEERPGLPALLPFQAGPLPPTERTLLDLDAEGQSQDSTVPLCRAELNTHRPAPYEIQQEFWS
Protocol: as §1, §2

RIOK2 = target: T18, RIOK2 (Homo sapiens, UniProt Q9BVS4); conditions: 100% no effect, 0% complete tracer displacement, read-out: Tracer bound
T18 construct: Full-length kinase ORF (Promega, Madison, WI, USA) cloned in frame with a NanoLuc-vector was transfected into HEK293T cells; host or cells: HEK293T
Protocol: as §1, §2

CSNK1G2 = target: T19, CSNK1G2 (Homo sapiens, UniProt P78368); conditions: 1 µM; 100% no effect, 0% complete tracer displacement
T19 construct: Full-length kinase ORF (Promega, Madison, WI, USA) cloned in frame with a NanoLuc-vector was transfected into HEK293T cells; host or cells: HEK293T
T19 sequence (P78368 whole entry): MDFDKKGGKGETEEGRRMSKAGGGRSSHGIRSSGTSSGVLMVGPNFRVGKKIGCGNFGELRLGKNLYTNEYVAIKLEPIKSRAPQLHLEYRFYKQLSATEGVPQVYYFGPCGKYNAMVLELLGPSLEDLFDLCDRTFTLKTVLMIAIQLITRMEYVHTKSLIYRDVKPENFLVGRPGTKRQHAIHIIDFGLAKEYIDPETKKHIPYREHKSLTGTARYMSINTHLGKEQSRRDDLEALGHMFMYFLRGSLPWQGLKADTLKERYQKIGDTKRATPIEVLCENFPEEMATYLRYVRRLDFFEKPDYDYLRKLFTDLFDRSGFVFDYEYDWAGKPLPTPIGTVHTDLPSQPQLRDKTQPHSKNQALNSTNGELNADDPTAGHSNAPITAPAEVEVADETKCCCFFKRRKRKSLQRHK
Protocol: as §1, §2

AURKC = target: T20, AURKC (Homo sapiens, UniProt Q9UQB9); conditions: 100% no effect, 0% complete tracer displacement, read-out: Tracer bound
T20 construct: Full-length kinase ORF (Promega, Madison, WI, USA) cloned in frame with a NanoLuc-vector was transfected into HEK293T cells; host or cells: HEK293T
T20 sequence (Q9UQB9 whole entry): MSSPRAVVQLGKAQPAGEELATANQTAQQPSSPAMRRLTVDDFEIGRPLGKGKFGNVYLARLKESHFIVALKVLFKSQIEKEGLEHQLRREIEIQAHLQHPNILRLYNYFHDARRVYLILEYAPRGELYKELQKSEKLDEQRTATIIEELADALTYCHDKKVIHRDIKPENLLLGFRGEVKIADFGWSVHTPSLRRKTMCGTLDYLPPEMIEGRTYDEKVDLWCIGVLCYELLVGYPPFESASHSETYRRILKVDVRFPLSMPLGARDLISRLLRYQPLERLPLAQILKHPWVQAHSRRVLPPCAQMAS
Protocol: as §1, §2

NEK1 = target: T21, NEK1 (Homo sapiens, UniProt Q96PY6); conditions: 100% no effect, 0% complete tracer displacement, read-out: Tracer bound
T21 construct: Full-length kinase ORF (Promega, Madison, WI, USA) cloned in frame with a NanoLuc-vector was transfected into HEK293T cells; host or cells: HEK293T
Protocol: as §1, §2

RPS6KA3 = target: T22, RPS6KA3 (Homo sapiens, UniProt P51812); conditions: 100% no effect, 0% complete tracer displacement, read-out: Tracer bound
T22 construct: Full-length kinase ORF (Promega, Madison, WI, USA) cloned in frame with a NanoLuc-vector was transfected into HEK293T cells; host or cells: HEK293T
Protocol: as §1, §2

PAK6 = target: T23, PAK6 (Homo sapiens, UniProt Q9NQU5); conditions: 100% no effect, 0% complete tracer displacement, read-out: Tracer bound
T23 construct: Full-length kinase ORF (Promega, Madison, WI, USA) cloned in frame with a NanoLuc-vector was transfected into HEK293T cells; host or cells: HEK293T
Protocol: as §1, §2

CDK3-CCNE1 = target: T24, CDK3-CCNE1 (Homo sapiens, UniProt Q00526); conditions: 1 µM; 100% no effect, 0% complete tracer displacement
T24 construct: Full-length kinase ORF (Promega, Madison, WI, USA) cloned in frame with a NanoLuc-vector was transfected into HEK293T cells; host or cells: HEK293T
Protocol: as §1, §2

TNK1 = target: T25, TNK1 (Homo sapiens, UniProt Q13470); conditions: 100% no effect, 0% complete tracer displacement, read-out: Tracer bound
T25 construct: Full-length kinase ORF (Promega, Madison, WI, USA) cloned in frame with a NanoLuc-vector; host or cells: HEK293T
Protocol: as §1, §2

AURKB = target: T26, AURKB (Homo sapiens, UniProt Q96GD4); conditions: 100% no effect, 0% complete tracer displacement, read-out: Tracer bound
T26 construct: Full-length kinase ORF (Promega, Madison, WI, USA) cloned in frame with a NanoLuc-vector was transfected into HEK293T cells; host or cells: HEK293T
Protocol: as §1, §2

SIK3 = target: T27, SIK3 (Homo sapiens, UniProt Q9Y2K2); conditions: 1 µM; 100% no effect, 0% complete tracer displacement
T27 construct: Full-length kinase ORF (Promega, Madison, WI, USA) cloned in frame with a NanoLuc-vector was transfected into HEK293T cells; host or cells: HEK293T
Protocol: as §1, §2

AURKA = target: T28, AURKA (Homo sapiens, UniProt O14965); conditions: 100% no effect, 0% complete tracer displacement, read-out: Tracer bound
T28 construct: Full-length kinase ORF (Promega, Madison, WI, USA) cloned in frame with a NanoLuc-vector was transfected into HEK293T cells; host or cells: HEK293T
Protocol: as §1, §2

ERN1 = target: T29, ERN1 (Homo sapiens, UniProt O75460); conditions: 100% no effect, 0% complete tracer displacement, read-out: Tracer bound
T29 construct: Full-length kinase ORF (Promega, Madison, WI, USA) cloned in frame with a NanoLuc-vector was transfected into HEK293T cells; host or cells: HEK293T
Protocol: as §1, §2

PAK4 = target: T30, PAK4 (Homo sapiens, UniProt O96013); conditions: 100% no effect, 0% complete tracer displacement, read-out: Tracer bound
T30 construct: Full-length kinase ORF (Promega, Madison, WI, USA) cloned in frame with a NanoLuc-vector was transfected into HEK293T cells; host or cells: HEK293T
T30 sequence (O96013 whole entry): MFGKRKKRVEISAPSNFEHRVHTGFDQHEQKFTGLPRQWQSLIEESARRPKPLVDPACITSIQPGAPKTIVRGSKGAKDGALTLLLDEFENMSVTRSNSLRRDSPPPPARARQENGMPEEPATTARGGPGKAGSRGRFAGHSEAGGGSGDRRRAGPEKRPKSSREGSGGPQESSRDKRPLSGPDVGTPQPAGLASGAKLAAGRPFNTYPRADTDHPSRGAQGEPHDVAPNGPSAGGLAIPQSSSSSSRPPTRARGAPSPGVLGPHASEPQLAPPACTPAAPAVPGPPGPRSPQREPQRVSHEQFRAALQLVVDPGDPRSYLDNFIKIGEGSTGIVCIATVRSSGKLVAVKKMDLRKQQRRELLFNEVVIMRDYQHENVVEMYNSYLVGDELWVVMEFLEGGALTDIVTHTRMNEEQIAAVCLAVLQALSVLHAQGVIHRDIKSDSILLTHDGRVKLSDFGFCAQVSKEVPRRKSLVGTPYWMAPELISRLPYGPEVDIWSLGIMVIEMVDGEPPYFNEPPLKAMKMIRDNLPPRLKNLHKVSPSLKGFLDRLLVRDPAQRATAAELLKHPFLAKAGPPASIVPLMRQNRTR
Protocol: as §1, §2

remaining activity at 1 µM (BRSK1): 107%
remaining activity at 1 µM (PRKCD-PMA): 115%
remaining activity at 1 µM (SNRK): 97%
Tracer bound (IRAK4): 114.7%
remaining activity at 1 µM (TEK): 85.7%
remaining activity at 1 µM (MAP4K2): 107%
remaining activity at 1 µM (CDK17-CCNY): 81.3%
Tracer bound (ULK3v1): 107.8%
Tracer bound (STK4): 102.0%
remaining activity at 1 µM (IRAK3): 115%
Tracer bound (CDK14-CCNY): 95.7%
remaining activity at 1 µM (CDK18-CCNY): 95.9%
Tracer bound (MAP3K11): 108.2%
remaining activity at 1 µM (PRKCQ-PMA): 104%
remaining activity at 1 µM (PRKCE-PMA): 78.3%
remaining activity at 1 µM (CDK5-CDK5R2): 104%
remaining activity at 1 µM (MAP3K9): 108%
remaining activity at 1 µM (RIOK2): 115%
Tracer bound (CSNK1G2): 92.4%
remaining activity at 1 µM (AURKC): 110%
remaining activity at 1 µM (NEK1): 95.9%
remaining activity at 1 µM (RPS6KA3): 120%
remaining activity at 1 µM (PAK6): 120%
Tracer bound (CDK3-CCNE1): 117.0%
remaining activity at 1 µM (TNK1): 120%
remaining activity at 1 µM (AURKB): 109%
Tracer bound (SIK3): 106.3%
remaining activity at 1 µM (AURKA): 120%
remaining activity at 1 µM (ERN1): 116%
remaining activity at 1 µM (PAK4): 101%
Structure (SMILES): Cc1ncsc1-c1ccc([C@H](C)NC(=O)[C@@H]2C[C@@H](O)CN2C(=O)[C@@H](NC(=O)[C@H]2CC[C@H](C(=O)N3CCN(CCNC(=O)c4cc(Oc5ccc(NC(=O)Nc6cc(C(C)(C)C)on6)cc5)ccn4)CC3)CC2)C(C)(C)C)cc1 [MA191, 4-(4-(3-(5-(tert-Butyl)isoxazol-3-yl)ureido)phenoxy)-N-(2-(4-(trans-4-(((S)-1-((2S,4R)-4-hydroxy-2-(((S)-1-(4-(4-methylthiazol-5-yl)phenyl)ethyl)carbamoyl)pyrrolidin-1-yl)-3,3-dimethyl-1-oxobutan-2-yl)carbamoyl)cyclohexanecarbonyl)piperazin-1-yl)ethyl)picolinamide]
